Measured values as given in the supplement of paper PMC10307832.

How the values were obtained:
Test in all cases: relative viability (nuclei count vs DMSO), 5 days (fraction); higher = more cells survive
Linifanib + Palbociclib = compound: Cc1ccc(F)c(NC(=O)Nc2ccc(-c3cccc4[nH]nc(N)c34)cc2)c1 [Linifanib] + CC(=O)c1c(C)c2cnc(Nc3ccc(N4CCNCC4)cn3)nc2n(C2CCCC2)c1=O [Palbociclib] (partner 0.5 µM)
In short: (§1)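 Lung cancer cell lines were pin-tool dosed in 1536-well plates on the day after seeding, with either a lone drug or a fixed anchor-drug dose plus five library-drug doses (not always all listed) in √10 steps. Nuclei were counted on 4× images after 5 days. Relative viability is the ratio of treated-well to vehicle-well nuclei counts, with each value a median of duplicate plates.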

Linifanib + Luminespib = compound: Cc1ccc(F)c(NC(=O)Nc2ccc(-c3cccc4[nH]nc(N)c34)cc2)c1 [Linifanib] + CCNC(=O)c1noc(-c2cc(C(C)C)c(O)cc2O)c1-c1ccc(CN2CCOCC2)cc1 [Luminespib] (partner 0.01 µM)
In short: as §1

Linifanib + Pictilisib = compound: Cc1ccc(F)c(NC(=O)Nc2ccc(-c3cccc4[nH]nc(N)c34)cc2)c1 [Linifanib] + CS(=O)(=O)N1CCN(Cc2cc3nc(-c4cccc5[nH]ncc45)nc(N4CCOCC4)c3s2)CC1 [Pictilisib] (partner 1 µM)
In short: as §1

Linifanib + Dasatinib = compound: Cc1ccc(F)c(NC(=O)Nc2ccc(-c3cccc4[nH]nc(N)c34)cc2)c1 [Linifanib] + Cc1nc(Nc2ncc(C(=O)Nc3c(C)cccc3Cl)s2)cc(N2CCN(CCO)CC2)n1 [Dasatinib] (partner 0.075 µM)
In short: as §1

Linifanib + Phenformin = compound: Cc1ccc(F)c(NC(=O)Nc2ccc(-c3cccc4[nH]nc(N)c34)cc2)c1 [Linifanib] + N=C(N)NC(=N)NCCc1ccccc1 [Phenformin] (partner 250 µM)
In short: as §1

Linifanib + Vorinostat = compound: Cc1ccc(F)c(NC(=O)Nc2ccc(-c3cccc4[nH]nc(N)c34)cc2)c1 [Linifanib] + O=C(CCCCCCC(=O)Nc1ccccc1)NO [Vorinostat] (partner 1 µM)
In short: as §1

Cell Line	relative viability (Linifanib + Palbociclib; first compound 0.03162 µM)	relative viability (Linifanib + Palbociclib; first compound 0.1 µM)	relative viability (Linifanib + Palbociclib; first compound 0.3162 µM)	relative viability (Linifanib + Luminespib; first compound 0.03162 µM)	relative viability (Linifanib + Luminespib; first compound 0.1 µM)	relative viability (Linifanib + Luminespib; first compound 0.3162 µM)	relative viability (Linifanib + Pictilisib; first compound 0.03162 µM)	relative viability (Linifanib + Pictilisib; first compound 0.1 µM)	relative viability (Linifanib + Pictilisib; first compound 0.3162 µM)	relative viability (Linifanib + Dasatinib; first compound 0.03162 µM)	relative viability (Linifanib + Dasatinib; first compound 0.1 µM)	relative viability (Linifanib + Dasatinib; first compound 0.3162 µM)	relative viability (Linifanib + Phenformin; first compound 0.03162 µM)	relative viability (Linifanib + Phenformin; first compound 0.1 µM)	relative viability (Linifanib + Phenformin; first compound 0.3162 µM)	relative viability (Linifanib + Vorinostat; first compound 0.03162 µM)	relative viability (Linifanib + Vorinostat; first compound 0.1 µM)	relative viability (Linifanib + Vorinostat; first compound 0.3162 µM)
SW 1573	0.367	0.448	0.366	0.162	0.26	0.253	0.43	0.517	0.417	0.578	0.931	0.539	0.411	0.363	0.438	0.909	0.93	0.594
NCI-H596	–	–	–	1.02	1.1	1.17	0.378	0.375	0.446	0.58	0.612	0.671	0.707	0.734	0.899	0.604	0.624	0.689
NCI-H2342	0.594	0.562	0.481	0.736	0.766	0.613	–	–	–	0.333	0.331	0.332	0.679	0.624	0.667	0.825	0.771	0.734
NCI-H358	0.132	0.126	0.114	0.366	0.374	0.416	0.407	0.37	0.32	0.175	0.204	0.205	0.375	0.385	0.322	0.72	0.723	0.803
ABC-1	0.754	0.797	0.787	0.497	0.558	0.783	0.759	0.953	0.742	0.546	0.555	0.589	0.271	0.234	0.24	1.19	1.31	0.906
EMC-BAC-2	0.542	0.562	0.531	1.2	1.19	1.14	0.555	0.59	0.523	0.341	0.347	0.406	0.625	0.582	0.544	0.47	0.465	0.426
NCI-H1666	0.649	0.647	0.693	1.03	1.04	0.999	0.492	0.419	0.402	0.856	0.833	0.779	0.577	0.559	0.548	0.996	1.01	0.97
NCI-H661	0.437	0.398	0.417	0.922	0.907	0.926	0.424	0.487	0.38	1.07	0.983	0.871	0.288	0.281	0.313	0.792	0.751	0.75
NCI-H2126	0.376	0.388	0.379	0.896	0.967	0.91	0.48	0.507	0.457	0.622	0.718	0.622	0.557	0.535	0.542	0.797	0.859	0.873
NCI-H1651	0.536	0.527	0.487	0.945	0.748	0.797	0.591	0.582	0.355	0.499	0.393	0.398	0.314	0.368	0.309	0.688	0.561	0.573
H3255	0.358	0.302	0.312	0.85	0.94	0.976	0.509	0.507	0.488	0.457	0.364	0.364	0.345	0.203	0.438	0.788	0.795	0.812
HOP-62	0.454	0.453	0.465	0.927	0.964	0.866	0.709	0.693	0.88	0.672	0.702	0.701	0.736	0.689	0.653	0.803	0.643	0.604
NCI-H441	0.222	0.24	0.228	0.371	0.297	0.252	0.493	0.519	0.479	0.646	0.705	0.639	0.854	0.93	0.899	0.626	0.81	0.658
SK-MES-1	0.323	0.331	0.336	0.79	0.769	0.639	0.369	0.338	0.398	0.336	0.455	0.388	0.704	0.692	0.653	1.13	1.05	1.05
EPLC-272H	0.333	0.338	0.294	0.405	0.392	0.419	0.355	0.324	0.28	0.324	0.418	0.51	0.298	0.318	0.325	0.522	0.467	0.513
NCI-H1915	0.541	0.548	0.507	0.826	0.804	0.679	1.04	0.923	0.892	0.301	0.359	0.36	0.368	0.378	0.352	0.549	0.482	0.504
NCI-H520	0.22	0.216	0.238	0.171	0.204	0.226	0.29	0.304	0.315	0.19	0.206	0.208	0.493	0.666	0.552	0.669	0.769	0.643
